Data as given in US20260365670A1, “EGFR INHIBITORS AND USES THEREOF” (DIZAL (JIANGSU) PHARMACEUTICAL CO., LTD., priority 2022, published 2026).
Read-outs that look alike come from different tables or passages of the source.

Columns and labels:
[1] = molecular target: T1, EGFR wild type (Homo sapiens, UniProt P00533); experiment: Inhibition of EGFR wild type biochemical enzymatic activity (HTRF); conditions: EGFR wild type, 1 mM ATP, 1 h at room temperature, read-out: IC50 @WT
T1 construct: purchased Carna Bio
Outline: (§1)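 For IC50 determination by four-parameter logistic fit, EDTA-quenched 1 h room-temperature reactions (1 mM ATP, 1 μM TK Substrate-biotin) were read by HTRF. The 665/615 nm emission ratio after 320 nm excitation served as the activity signal.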

[2] = molecular target: T2, EGFR L858R/T790M (Homo sapiens, UniProt P00533, L858R/T790M); experiment: Inhibition of EGFR L858R/T790M biochemical enzymatic activity (HTRF); conditions: EGFR L858R/T790M, 1 mM ATP, 1 h at room temperature, read-out: IC50 @L858R-T790M
T2 construct: purchased Carna Bio
Outline: as §1

[3] = molecular target: T3, EGFR[T790M/C797S/L858R] (Homo sapiens, UniProt P00533, C797S/L858R/T790M); experiment: Inhibition of EGFR[T790M/C797S/L858R] biochemical enzymatic activity (HTRF); conditions: EGFR[T790M/C797S/L858R], 1 mM ATP, 1 h at room temperature, read-out: IC50 @T790M- C797S - L858R
T3 construct: purchased Carna Bio
Outline: as §1

[4] = molecular target: T4, EGFR (C797S L858R) (Homo sapiens, UniProt P00533, C797S/L858R); experiment: Inhibition of EGFR (C797S L858R) biochemical enzymatic activity (HTRF); conditions: EGFR (C797S L858R), 1 mM ATP, 1 h at room temperature, read-out: IC50 @L858-C797S
T4 construct: purchased signalchem
Outline: as §1

[5] = system: PC-9; experiment: Cell proliferation assay, PC-9 cells (CellTiter-Glo, 72 hours); assay type: cell-based; conditions: PC9 cells, read-out: GI50 PC9
Outline: (§2)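 Ba/F3 cells carrying EGFR mutants (5000/well) or PC-9 cells (500/well) in RPMI1640 were dosed with compound series after overnight attachment and grown 72 h. Viability read by CellTiter-Glo, with day-0 counts subtracted; GI50 from curve fits of % proliferation versus DMSO control.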

[6] = system: Ba/F3 cells expressing EGFR mutations; experiment: Cell proliferation assay, Ba/F3 cells expressing EGFR mutations (CellTiter-Glo, 72 hours); assay type: cell-based
Outline: as §2

[7] = molecular target: T5, EGFR Exon19Del/T790M (Homo sapiens, UniProt P00533, DEL746-750/T790M); experiment: Inhibition of EGFR Exon19Del/T790M biochemical enzymatic activity (HTRF); conditions: EGFR Exon19Del/T790M, 1 mM ATP, 1 h at room temperature, read-out: IC50 @Del19-T790M
T5 construct: purchased Carna Bio
Outline: as §1

[8] = molecular target: T6, EGFR L858R (Homo sapiens, UniProt P00533, L858R); experiment: Inhibition of EGFR L858R biochemical enzymatic activity (HTRF); conditions: 1 mM ATP, 1 h at room temperature, read-out: IC50 @L858R
T6 construct: purchased Carna Bio
Outline: as §1

[9] = molecular target: T7, EGFR[T790M/C797S/d746-750] (Homo sapiens, UniProt P00533, C797S/DEL746-750/T790M); experiment: Inhibition of EGFR[T790M/C797S/d746-750] biochemical enzymatic activity (HTRF); conditions: EGFR[T790M/C797S/d746-750], 1 mM ATP, 1 h at room temperature, read-out: IC50 @T790M - C797S - Del19
T7 construct: purchased Carna Bio
Outline: as §1

[10] = molecular target: T8, EGFR (d746-750 C797S) (Homo sapiens, UniProt P00533, C797S/DEL746-750); experiment: Inhibition of EGFR (d746-750 C797S) biochemical enzymatic activity (HTRF); conditions: EGFR (d746-750 C797S), 1 mM ATP, 1 h at room temperature, read-out: IC50 @Del19-C797S
T8 construct: purchased signalchem
Outline: as §1

[11] = molecular target: T9, EGFR Exon19Del (Homo sapiens, UniProt P00533, DEL746-750); experiment: Inhibition of EGFR Exon19Del biochemical enzymatic activity (HTRF); conditions: EGFR Exon19Del, 1 mM ATP, 1 h at room temperature, read-out: IC50 @Del19
T9 construct: purchased Carna Bio
Outline: as §1

[12] = BaF3 cells, EGFR DEL19 - C797S, read-out: GI50 DEL19 - C797S/BaF3
[13] = BaF3 cells, EGFR DEL19 - T790-C797S, read-out: GI50 DEL19 - T790-C797S/BaF3
[14] = BaF3 cells, EGFR L858R - C797S, read-out: GI50 L858R - C797S/BaF3
[15] = BaF3 cells, EGFR L858R - T790-C797S, read-out: GI50 L858R - T790-C797S/BaF3
[16] = BaF3 cells, EGFR L858R - T790M, read-out: GI50 L858R - T790M/BaF3
[17] = BaF3 cells, EGFR L858R, read-out: GI50 L858R/BaF3
[18] = EGFR DEL19 - T790M, read-out: GI50 DEL19 - T790M

T8 sequence (P00533 with tags, fused parts or gaps DEL746-750/C797S limits assumed): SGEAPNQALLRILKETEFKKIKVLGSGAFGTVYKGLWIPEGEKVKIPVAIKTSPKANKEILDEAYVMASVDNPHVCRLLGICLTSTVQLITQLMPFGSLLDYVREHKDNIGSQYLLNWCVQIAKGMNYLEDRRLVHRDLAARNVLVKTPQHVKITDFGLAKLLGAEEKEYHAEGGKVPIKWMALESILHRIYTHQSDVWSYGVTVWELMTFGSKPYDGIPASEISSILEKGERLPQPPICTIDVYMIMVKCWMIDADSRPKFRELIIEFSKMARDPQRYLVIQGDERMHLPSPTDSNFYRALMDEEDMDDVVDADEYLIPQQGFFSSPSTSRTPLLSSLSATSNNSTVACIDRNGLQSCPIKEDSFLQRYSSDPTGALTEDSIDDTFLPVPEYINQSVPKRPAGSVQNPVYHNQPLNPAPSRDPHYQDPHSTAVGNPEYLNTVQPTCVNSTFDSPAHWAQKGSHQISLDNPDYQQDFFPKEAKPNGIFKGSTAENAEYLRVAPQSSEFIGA
T5 sequence (P00533 with tags, fused parts or gaps DEL746-750/T790M limits assumed): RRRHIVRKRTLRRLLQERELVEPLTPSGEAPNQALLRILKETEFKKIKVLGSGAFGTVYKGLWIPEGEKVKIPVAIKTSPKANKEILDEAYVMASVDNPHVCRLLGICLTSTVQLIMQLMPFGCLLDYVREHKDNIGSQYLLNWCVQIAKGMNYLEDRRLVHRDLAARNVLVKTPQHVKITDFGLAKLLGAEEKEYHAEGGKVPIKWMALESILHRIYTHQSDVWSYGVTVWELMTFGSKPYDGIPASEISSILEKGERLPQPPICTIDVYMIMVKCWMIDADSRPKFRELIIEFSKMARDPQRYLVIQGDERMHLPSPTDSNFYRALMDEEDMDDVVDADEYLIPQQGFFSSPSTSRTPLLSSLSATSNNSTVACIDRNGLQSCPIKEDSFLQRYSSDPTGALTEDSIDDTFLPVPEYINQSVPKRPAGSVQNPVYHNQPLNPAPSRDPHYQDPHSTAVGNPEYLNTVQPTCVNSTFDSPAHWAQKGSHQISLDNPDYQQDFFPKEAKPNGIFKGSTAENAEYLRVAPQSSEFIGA
T7 sequence (P00533 with tags, fused parts or gaps DEL746-750/T790M/C797S limits assumed): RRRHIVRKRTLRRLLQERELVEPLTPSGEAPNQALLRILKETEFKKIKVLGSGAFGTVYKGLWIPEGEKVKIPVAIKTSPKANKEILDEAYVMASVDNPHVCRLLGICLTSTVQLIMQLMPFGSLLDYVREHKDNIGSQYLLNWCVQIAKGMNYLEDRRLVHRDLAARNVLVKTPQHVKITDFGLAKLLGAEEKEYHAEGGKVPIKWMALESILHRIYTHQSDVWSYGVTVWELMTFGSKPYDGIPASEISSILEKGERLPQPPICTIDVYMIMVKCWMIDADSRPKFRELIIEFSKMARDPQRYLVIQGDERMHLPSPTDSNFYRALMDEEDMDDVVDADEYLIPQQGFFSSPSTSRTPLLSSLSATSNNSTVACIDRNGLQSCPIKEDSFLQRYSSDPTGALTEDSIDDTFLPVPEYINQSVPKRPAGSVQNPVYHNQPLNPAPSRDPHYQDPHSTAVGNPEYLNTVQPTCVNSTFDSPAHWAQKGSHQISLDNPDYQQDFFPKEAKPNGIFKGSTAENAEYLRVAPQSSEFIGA
T3 sequence (P00533 25-1210 T790M/C797S/L858R): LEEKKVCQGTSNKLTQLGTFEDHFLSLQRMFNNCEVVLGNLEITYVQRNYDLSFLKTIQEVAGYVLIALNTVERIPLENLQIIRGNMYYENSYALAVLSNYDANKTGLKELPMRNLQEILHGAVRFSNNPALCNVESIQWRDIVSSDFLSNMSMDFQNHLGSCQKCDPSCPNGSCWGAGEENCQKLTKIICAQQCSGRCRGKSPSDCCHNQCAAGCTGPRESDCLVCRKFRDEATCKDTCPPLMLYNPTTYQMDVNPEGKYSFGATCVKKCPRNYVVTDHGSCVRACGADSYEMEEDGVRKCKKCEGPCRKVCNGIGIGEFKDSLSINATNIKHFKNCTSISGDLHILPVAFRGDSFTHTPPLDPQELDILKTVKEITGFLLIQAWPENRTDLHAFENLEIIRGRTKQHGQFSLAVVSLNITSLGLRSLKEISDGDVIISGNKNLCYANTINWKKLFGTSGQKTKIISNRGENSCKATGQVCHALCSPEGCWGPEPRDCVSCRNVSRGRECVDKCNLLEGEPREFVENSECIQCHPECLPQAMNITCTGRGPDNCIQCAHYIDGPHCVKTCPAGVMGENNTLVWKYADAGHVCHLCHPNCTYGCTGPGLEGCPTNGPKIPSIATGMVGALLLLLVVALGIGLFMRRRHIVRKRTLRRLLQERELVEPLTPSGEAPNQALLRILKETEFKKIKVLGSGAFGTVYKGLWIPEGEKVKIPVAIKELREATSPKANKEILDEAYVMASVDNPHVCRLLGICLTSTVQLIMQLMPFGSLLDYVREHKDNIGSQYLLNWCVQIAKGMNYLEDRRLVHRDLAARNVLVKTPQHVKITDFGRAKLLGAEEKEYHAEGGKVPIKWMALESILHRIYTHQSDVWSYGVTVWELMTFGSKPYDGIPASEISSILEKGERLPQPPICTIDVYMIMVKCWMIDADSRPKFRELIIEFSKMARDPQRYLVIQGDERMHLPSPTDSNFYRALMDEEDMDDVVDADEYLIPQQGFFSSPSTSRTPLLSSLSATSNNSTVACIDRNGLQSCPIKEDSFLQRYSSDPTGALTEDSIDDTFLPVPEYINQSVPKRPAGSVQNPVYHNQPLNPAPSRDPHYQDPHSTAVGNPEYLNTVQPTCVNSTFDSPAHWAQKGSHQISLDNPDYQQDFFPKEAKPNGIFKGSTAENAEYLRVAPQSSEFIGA
T6 sequence (P00533 25-1210 L858R): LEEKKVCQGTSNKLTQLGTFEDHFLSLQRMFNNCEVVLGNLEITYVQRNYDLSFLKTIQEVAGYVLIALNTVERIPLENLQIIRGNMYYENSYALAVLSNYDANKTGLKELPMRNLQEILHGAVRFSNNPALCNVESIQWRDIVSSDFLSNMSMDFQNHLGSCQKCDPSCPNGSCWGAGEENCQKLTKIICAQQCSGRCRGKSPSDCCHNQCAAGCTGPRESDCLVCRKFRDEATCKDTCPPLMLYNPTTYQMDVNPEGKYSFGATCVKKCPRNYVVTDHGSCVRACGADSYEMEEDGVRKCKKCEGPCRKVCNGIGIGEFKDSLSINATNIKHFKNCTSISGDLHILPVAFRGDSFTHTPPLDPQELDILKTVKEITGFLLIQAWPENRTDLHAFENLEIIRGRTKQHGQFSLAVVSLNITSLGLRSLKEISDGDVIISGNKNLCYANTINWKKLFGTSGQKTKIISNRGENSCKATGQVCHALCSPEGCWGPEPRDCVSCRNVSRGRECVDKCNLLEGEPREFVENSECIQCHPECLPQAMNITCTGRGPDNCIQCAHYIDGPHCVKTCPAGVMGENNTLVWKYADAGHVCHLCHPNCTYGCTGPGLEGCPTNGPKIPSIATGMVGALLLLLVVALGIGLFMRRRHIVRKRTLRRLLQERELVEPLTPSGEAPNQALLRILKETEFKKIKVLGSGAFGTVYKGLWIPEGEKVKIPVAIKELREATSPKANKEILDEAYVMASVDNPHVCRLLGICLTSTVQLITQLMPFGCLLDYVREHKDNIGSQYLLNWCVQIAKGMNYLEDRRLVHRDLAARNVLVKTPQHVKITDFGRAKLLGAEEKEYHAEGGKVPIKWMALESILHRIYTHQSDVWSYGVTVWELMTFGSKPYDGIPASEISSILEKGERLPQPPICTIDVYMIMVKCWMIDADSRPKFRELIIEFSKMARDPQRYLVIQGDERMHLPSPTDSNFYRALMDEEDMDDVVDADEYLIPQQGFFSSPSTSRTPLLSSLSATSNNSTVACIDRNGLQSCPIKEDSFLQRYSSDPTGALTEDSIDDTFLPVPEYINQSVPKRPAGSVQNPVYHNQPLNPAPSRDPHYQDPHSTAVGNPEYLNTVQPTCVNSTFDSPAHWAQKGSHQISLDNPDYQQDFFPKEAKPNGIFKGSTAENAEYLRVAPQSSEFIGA
T9 sequence (P00533 with tags, fused parts or gaps DEL746-750 limits assumed): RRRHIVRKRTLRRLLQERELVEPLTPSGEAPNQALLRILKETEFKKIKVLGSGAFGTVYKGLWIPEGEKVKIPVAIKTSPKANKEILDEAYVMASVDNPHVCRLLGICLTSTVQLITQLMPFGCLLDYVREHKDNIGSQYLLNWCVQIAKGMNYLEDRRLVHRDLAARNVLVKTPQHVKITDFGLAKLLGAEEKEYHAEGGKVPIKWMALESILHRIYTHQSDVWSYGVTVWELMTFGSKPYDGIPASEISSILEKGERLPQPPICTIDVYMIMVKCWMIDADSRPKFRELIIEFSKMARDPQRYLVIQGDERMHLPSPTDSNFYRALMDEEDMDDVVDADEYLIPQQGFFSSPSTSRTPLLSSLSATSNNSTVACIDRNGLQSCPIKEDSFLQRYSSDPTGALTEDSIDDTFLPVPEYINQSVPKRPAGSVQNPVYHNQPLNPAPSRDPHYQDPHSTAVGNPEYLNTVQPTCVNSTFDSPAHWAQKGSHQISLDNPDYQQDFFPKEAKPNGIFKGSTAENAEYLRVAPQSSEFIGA

SMILES | IC50 [1] | IC50 [2] | IC50 [3] | IC50 [4] | GI50 [5] | GI50 [6, 12] | GI50 [6, 13] | GI50 [6, 14] | GI50 [6, 15] | GI50 [6, 16] | GI50 [6, 17] | GI50 [6, 18] | IC50 [7] | IC50 [8] | IC50 [9] | IC50 [10] | IC50 [11]
Cc1cc2cc(n1)-c1cnn(C)c1OCCN1CC3CCC(C3)(C1)n1c(nc3ccc(N(C)CCCN(C)C)cc31)NC2=O (single isomer, unassigned) [Example B45A] | > 5000 nM | > 5000 nM | > 5000 nM | > 5000 nM | 2800 nM | 239 nM | 363 nM | 10000 nM | 48 nM | 10000 nM | 2850 nM | 10000 nM | 3620 nM | > 5000 nM | 1290 nM | > 5000 nM | > 5000 nM
Cc1cc2cc(n1)-c1cnn(C)c1OCCN1CC3CCC(C3)(C1)n1c(nc3ccc(N(C)CCN(C)C)cc31)NC2=O (single isomer, unassigned) [Example B47A] | > 5000 nM | > 5000 nM | > 5000 nM | > 5000 nM | 2260 nM | 371 nM | 500 nM | 721 nM | 97 nM | 380 nM | 2990 nM | 417 nM | 4260 nM | > 5000 nM | 1820 nM | 3460 nM | 4170 nM
Cc1cc2cc(n1)-c1cnn(C)c1OCCN1CC3CCC(C3)(C1)n1c(nc3ccc(N4CCC(N5CCN(C)CC5)C4)cc31)NC2=O (single isomer, unassigned) [Example B49B] | 76 nM | 5.6 nM | 2.4 nM | 8 nM | 6 nM | 2 nM | 2 nM | 3 nM | 2 nM | 2 nM | 2 nM | 2 nM | 5.8 nM | 17 nM | 3.5 nM | 3.8 nM | 8 nM
Cc1cc2cc(n1)-c1cnn(C)c1OCCN1CC3CCC(C3)(C1)n1c(nc3ccc(N4CCC5(CN(C)C5)C4)cc31)NC2=O (single isomer, unassigned) [Example B50A] | > 5000 nM | > 5000 nM | > 5000 nM | > 5000 nM | 1550 nM | 302 nM | 437 nM | 741 nM | 52 nM | 320 nM | 1280 nM | 377 nM | 2290 nM | > 5000 nM | 748 nM | > 5000 nM | > 5000 nM
Cc1cc2cc(n1)-c1cnn(C)c1OCCN1CC3CCC(C3)(C1)n1c(nc3ccc(N4CCC5(CCN(C)CC5)C4)cc31)NC2=O (single isomer, unassigned) [Example B51A] | > 5000 nM | > 5000 nM | > 5000 nM | > 5000 nM | 3020 nM | 357 nM | 615 nM | 1080 nM | 124 nM | 383 nM | 2850 nM | 530 nM | 3370 nM | > 5000 nM | 1100 nM | > 5000 nM | > 5000 nM
Cc1cc2cc(n1)-c1cnn(C)c1OCCN1CC3CCC(C3)(C1)n1c(nc3ccc(N4CC5CC4CN5C)cc31)NC2=O (single isomer, unassigned) [Example B53A] | > 5000 nM | > 5000 nM | > 5000 nM | > 5000 nM | 3040 nM | 348 nM | 419 nM | 1070 nM | 91 nM | 383 nM | 2570 nM | 388 nM | 3320 nM | > 5000 nM | 1080 nM | 4350 nM | > 5000 nM
Cc1cc2cc(n1)-c1cnn(C)c1OCCN1CC3CCC(C3)(C1)n1c(nc3ccc(N4CCC(N5CCN(C)CC5)CC4)cc31)NC2=O (single isomer, unassigned) [Example B59B] | 360 nM | 7.7 nM | 4.4 nM | 9.5 nM | 32 nM | 11 nM | 12 nM | 27 nM | 3 nM | 11 nM | 36 nM | 13 nM | 10 nM | 27 nM | 6.1 nM | 5 nM | 12 nM

More lines, now with the values ahead:

IC50 [1] | IC50 [2] | IC50 [3] | IC50 [4] | GI50 [5] | GI50 [6, 12] | GI50 [6, 13] | GI50 [6, 14] | GI50 [6, 15] | GI50 [6, 16] | GI50 [6, 17] | GI50 [6, 18] | IC50 [7] | IC50 [8] | IC50 [9] | IC50 [10] | IC50 [11] | SMILES
> 5000 nM | > 5000 nM | > 5000 nM | > 5000 nM | 1480 nM | 325 nM | 606 nM | 750 nM | 57 nM | 353 nM | 931 nM | 550 nM | 481 nM | > 5000 nM | 289 nM | > 5000 nM | > 5000 nM | Cc1cc2cc(n1)-c1cnn(C)c1OCCN1CC3CCC(C3)(C1)n1c(nc3ccc(N4CCC(N5CCN(C)CC5)C4)cc31)NC2=O (single isomer, unassigned) [Example B49A]
> 5000 nM | > 5000 nM | > 5000 nM | > 5000 nM | 443 nM | 82 nM | 145 nM | 417 nM | 58 nM | 80 nM | 1030 nM | 230 nM | 1320 nM | > 5000 nM | 360 nM | 2390 nM | 3180 nM | CCN1CCN(c2ccc3nc4n(c3c2)C23CCC(CN(CCOc5c(cnn5C)-c5cc(cc(C)n5)C(=O)N4)C2)C3)CC1 (single isomer, unassigned) [Example B56A]
> 5000 nM | > 5000 nM | > 5000 nM | > 5000 nM | 941 nM | 208 nM | 428 nM | 829 nM | 147 nM | 324 nM | 2000 nM | 612 nM | 1770 nM | > 5000 nM | 792 nM | > 5000 nM | > 5000 nM | Cc1cc2cc(n1)-c1cnn(C)c1OCCN1CC3CCC(C3)(C1)n1c(nc3ccc(N4CCN(C(C)C)CC4)cc31)NC2=O (single isomer, unassigned) [Example B57A]
> 5000 nM | > 5000 nM | > 5000 nM | > 5000 nM | 930 nM | 227 nM | 474 nM | 751 nM | 144 nM | 299 nM | 1130 nM | 788 nM | 1140 nM | > 5000 nM | 514 nM | > 5000 nM | > 5000 nM | Cc1cc2cc(n1)-c1cnn(C)c1OCCN1CC3CCC(C3)(C1)n1c(nc3ccc(N4CCC(N5CCN(C)CC5)CC4)cc31)NC2=O (single isomer, unassigned) [Example B59A]
